Patent US11479470B2, “Three-dimensional boron-rich clusters” (The Regents of the University of California, priority 2016, dated 2022)
Entries after “also recorded” stand apart in the source; their conditions may differ.

Target: concanavalin A (ConA) (Canavalia ensiformis, UniProt P02866)
Assay: Surface plasmon resonance (Biacore T100) binding of glycosylated OCN to immobilised lectin
Settings: injected at the highest mass concentration of [2l] shown (2.0 mg 1-1)
Procedure: ConA was covalently attached to the Au-coated sensor chip's dextran layer via conventional amide coupling, and binding between ConA and the injected analyte was measured as a change in the refractive index (RI) and expressed in response units (RU). […] (See, e.g., Kamiya, N., et al., J. Am. Chem. Soc. 129, 3816-3817 (2007), the disclosure of which is incorporated herein by reference.)

O=C[C@H](O)[C@@H](O)[C@H](O)[C@H](O)CO [D-glucose]
binding response to ConA (controls): minimal to no binding; also recorded: minimal binding
